Read-outs that look alike come from different tables or passages of the source.
System: T1, GCaMP5-expressing T. gondii
T1 construct: whole extracellular parasites expressing GCaMP5 Ca2+ sensor
Set-up: species or system GCaMP5-expressing Toxoplasma gondii, extracellular; GCaMP5 fluorescence (cytosolic Ca2+) after 100 uM zaprinast in compound-pretreated extracellular parasites, background-subtracted, relative to zaprinast alone
Conditions: 100 uM zaprinast stimulation, 10 min pretreatment, mean of two replicates, 0.23 h
Summary of the method: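 Read-out is GCaMP5 calcium fluorescence (ex 485/em 525 nm) taken 4 min after 100 μM zaprinast at 37 °C, following 10 min compound pretreatment at 10 μM in duplicate biological replicates. Values are basal-subtracted fold change versus zaprinast-only controls; parasites held extracellular in Ringer's solution.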

Structure (SMILES) | fold change in fluorescence relative to zaprinast alone | fold change in fluorescence relative to zaprinast alone (10 µM)
CC(C)Oc1ccc2c(-c3ccnc(Nc4ccc(N5CCN(C)CC5)cc4)n3)cnn2n1 [GW696155X] | 0.6015 | 
COC(=O)Nc1nc2ccc(Oc3ccc(NC(=O)Nc4cc(C(F)(F)F)ccc4Cl)cc3)cc2[nH]1 [GW697465A] | 0.849 | 
COC(=O)Nc1nc2ccc(Oc3ccc(NC(=O)Nc4cccc(SC)c4)cc3)cc2[nH]1 [GW697999A] | 1.427 | 
COc1ccc(CNC(=O)c2ccc(-c3cc(-c4nnc(C)o4)ccc3C)cc2)cc1 [GW701032X] | 1.056 | 
COC(=O)Nc1nc2ccc(Oc3ccc(NC(=O)Nc4cc(F)ccc4F)cc3)cc2[nH]1 [GW701424A] | 1.084 | 
COC(=O)Nc1nc2cc(Oc3ccc(NC(=O)Nc4cccc(C(=O)O)c4)cc3)ccc2[nH]1 [GW701427A] | 1.188 | 
Cc1nnc(-c2ccc(C)c(-c3ccc(C(=O)Nc4ccc(NS(C)(=O)=O)cc4)cc3)c2)o1 [GW702865X] | 1.258 | 
CC(=O)Nc1cccc(C#Cc2cncnc2Nc2ccc(OCc3cccc(F)c3)c(Cl)c2)c1 [GW703087X] | 1.104 | 
Fc1cccc(COc2ccc(Nc3ncnc4sc(-c5ccc[nH]5)cc34)cc2Cl)c1 [GW707818B] | 0.2741 | 
c1cc(-c2cnn3nc(N4CCOCC4)ccc23)nc(NC2CC2)n1 [GW708336X] | 0.6756 | 
Cc1nnc(-c2ccc(C)c(-c3ccc(C(=O)NCc4ccc(Cl)cc4)cc3)c2)o1 [GW708893X] | 1.038 | 
O=C(Nc1ccc(Oc2ccc3[nH]c(NC(=O)c4ccccc4)nc3c2)cc1)Nc1cc(C(F)(F)F)ccc1F [GW709042A] | 1.07 | 
FC(F)(F)c1ccc(/C=C/c2cncnc2Nc2ccc3nc(Cc4ccccc4)[nH]c3c2)cc1 [GW709199X] | 1.132 | 
c1ccc(-c2[nH]ncc2-c2ccnc(-c3ccc(CNC4CCOCC4)cc3)c2)nc1 [GW709213X] | 1.08 | 
c1ccc(-c2n[nH]cc2-c2ccnc(-c3ccc(OCCn4ccnc4)cc3)c2)nc1 [GW711782X] | 1.163 | 
Cc1ccc(NC(=O)c2ccoc2)cc1-c1ccc(C(=O)NCC2CC2)cc1 [GW743024X] | 1.222 | 
NC(=O)c1cccc(Nc2nccc(Nc3cccc(F)c3)n2)c1 [GW759710A] | 1.166 | 
CN(C)CC(O)COc1ccc(Nc2nccc(-c3cnn4nc(N5CCOCC5)ccc34)n2)cc1 (stereo not shown) [GW767488X] | 0.9765 | 
CN1CCN(CCNc2nc3ccc(Oc4ccc(NC(=O)Nc5cc(C(F)(F)F)ccc5F)cc4)cc3[nH]2)CC1 [GW768504A] | 0.9512 | 
Cc1ccc(NC(=O)c2ccnc(N3CCCC3)c2)cc1-c1ccc(C(=O)NCC2CC2)cc1 [GW769076X] | 1.128 | 
Nc1ncnc2occ(-c3ccc(NC(=O)Nc4cc(C(F)(F)F)ccc4F)cc3)c12 [GW770249A] |  | 0.2788

Structure (SMILES) | fold change in fluorescence relative to zaprinast alone | fold change in fluorescence relative to zaprinast alone (10 µM)
Cc1c2ccc(N(C)c3ccnc(Nc4cccc(S(N)(=O)=O)c4)n3)cc2nn1C [GW771127A] | 1.211 | 
Cc1ccc(NC(=O)c2ccnc(N3CCN(C)CC3)c2)cc1-c1ccc(C(=O)NCC2CC2)cc1 [GW775604X] | 1.197 | 
Cc1ccc(NC(=O)c2ccnc(N3CCCCC3)c2)cc1-c1ccc(C(=O)NCC2CC2)cc1 [GW775610X] | 1.448 | 
c1ccc(-c2[nH]ncc2-c2ccnc(-c3ccc(CN4CCOCC4)cc3)c2)nc1 [GW776245A] | 1.036 | 
Cc1ccnc2ccc(-c3sc(N)nc3-c3ccccn3)nc12 [GW777257X] | 1.011 | 
N#Cc1cccc(Nc2nccc(-c3cnn4ncccc34)n2)c1 [GW778894X] | 0.1658 | 
CCN(CC)Cc1ccc(Nc2nccc(-c3cnn4ncccc34)n2)cc1 [GW780056X] | 0.8961 | 
C=CC(=O)Nc1cc2c(Nc3ccc(F)c(Cl)c3)ncnc2cc1OCCCN1CCOCC1 [GW781483X] | 1.29 | 
Clc1ccc(CNc2nccc(-c3cnn4ncccc34)n2)cc1 [GW781673X] | 0.7156 | 
NC(=O)c1cccc(Nc2nccc(Nc3cccc4[nH]ncc34)n2)c1 [GW782612X] | 1.061 | 
Cc1ccc(C(=O)NC2CCCCC2)cc1-c1ccc(C(=O)NCC2CC2)cc1 [GW782907X] | 1.25 | 
Cc1ccc(C(=O)NC2CCC2)cc1-c1ccc(C(=O)NCC2CC2)cc1 [GW782912X] | 1.104 | 
COc1ccc(C)c(Nc2ccnc(Nc3ccc(-c4cnc[nH]4)cc3)n2)c1 [GW784041A] | 1.009 | 
COc1cccc(-n2ncc3c(N/N=C/c4ccc(C(=O)NCCN(C)C)cc4)ncnc32)c1 [GW784307A] | 0.4737 | 
COc1cccc(-n2ncc3c(N/N=C/c4ccncc4)ncnc32)c1 [GW784752X] | 1.109 | 
Nc1nc(-c2ccc(F)cc2)c(-c2ccc3ncccc3n2)s1 [GW785804X] | 1.356 | 
Cc1ccc(C(=O)NC(C)C)cc1-c1ccc(C(=O)NCC2CC2)cc1 [GW785974X] | 1.119 | 
Cc1cccc(-c2n[nH]cc2-c2ccc3ncccc3n2)n1 [GW786460X] | 1.226 | 
Cc1c2ccc(N(C)c3ccnc(Nc4cccc(S(N)(=O)=O)c4)n3)cc2nn1Cc1ccccc1 [GW787226A] | 1.348 | 
CCCNc1cccc(-n2ncc3c(N/N=C/c4ccncc4)ncnc32)c1 [GW794607X] | 0.688 | 
Nc1ncnc2occ(-c3ccc(NC(=O)Nc4cc(C(F)(F)F)cc(C(F)(F)F)c4)cc3)c12 [GW795486X] | 0.08819 | 

Structure (SMILES) | fold change in fluorescence relative to zaprinast alone | fold change in fluorescence relative to zaprinast alone (10 µM)
Cc1ccc(NC(=O)CC2CC2)cc1-c1ccc(C(=O)NCC2CC2)cc1 [GW796920X] | 1.231 | 
Nc1nccc(C#Cc2cncnc2Nc2ccc(OCc3cccc(F)c3)c(Cl)c2)n1 [GW799251X] | 1.079 | 
Cc1ccc(C(=O)NC2CCCC2)cc1-c1ccc(C(=O)NCC2CC2)cc1 [GW800172X] | 1.109 | 
COc1cc(Nc2nccc(-c3cnn4ncccc34)n2)cc(OC)c1 [GW801372X] | 0.4013 | 
COc1cccc(COc2cc(-n3cnc4ccccc43)sc2C(N)=O)c1 [GW804482X] | 1.105 | 
CC(C)c1ccc(Nc2nccc(-c3cnn4ncccc34)n2)cc1 [GW805758X] | 0.2516 | 
c1cnn2ncc(-c3ccnc(Nc4ccc5c(c4)OCCO5)n3)c2c1 [GW806290X] | -0.04929 | 
CN(c1ccc(NC(=O)Nc2ccc(OC(F)(F)F)cc2)cc1)c1ccnc(Nc2cccc(S(N)(=O)=O)c2)n1 [GW806742X] | 0.4394 | 
CCOc1ccc2c(-c3ccnc(Nc4cc(OC)cc(C(F)(F)F)c4)n3)cnn2n1 [GW807982X] | 0.9255 | 
COc1cccc(-n2nc(C)c3c(N/N=C(\C)c4ccncc4)ncnc32)c1 [GW809885X] | 1.233 | 
CN(c1ccc(NC(=O)Nc2cc(C(F)(F)F)ccc2F)cc1)c1ccnc(Nc2ccc(S(N)(=O)=O)cc2)n1 [GW809893X] | 0.2843 | 
CN(c1ccc(NC(=O)Nc2c(Cl)cccc2Cl)cc1)c1ccnc(Nc2cccc(CS(C)(=O)=O)c2)n1 [GW809897X] | 1.103 | 
CN(C(=O)c1ccc(-c2cc(-c3cn[nH]c3-c3ccccn3)ccn2)cc1)C1CCOCC1 [GW810083X] | 1.114 | 
COc1ccc2c(-c3ccnc(Nc4cccc(OC(F)(F)F)c4)n3)cnn2n1 [GW810372X] | 0.1756 | 
COc1ccc(NC(=O)c2ccoc2)cc1-c1ccc(C(=O)NCC2CC2)cc1 [GW810437X] | 1.267 | 
O=C(NCC1CC1)c1ccc(-c2cc(C(=O)NC3CC3)ccc2F)cc1 [GW810445X] | 1.232 | 
FC(F)(F)c1cc(Br)cc(Nc2nccc(-c3cnn4ncccc34)n2)c1 [GW810578X] | 0.9472 | 
COc1cccc(-n2ncc3c(N/N=C/c4ccc(S(C)(=O)=O)cc4)ncnc32)c1 [GW811168X] | 0.6755 | 
CN(c1ccc2c(c1)nc(NCc1ccccc1)n2C)c1ccnc(Nc2ccc(CS(C)(=O)=O)cc2)n1 [GW811603A] | 1.239 | 

Source: article PMC4850295, “Using a Genetically Encoded Sensor to Identify Inhibitors of Toxoplasma gondii Ca^2+ Signaling” (The Journal of Biological Chemistry, 2016)
